This note sets out measurements from article PMC5013292, “A Putative Bacterial ABC Transporter Circumvents the Essentiality of Signal Peptidase” (mBio, 2016).

Values after ≈ are worked out from the molar mass of the structure shown.

The subject of assay [1] is S. aureus USA300 wild type. Kind of assay: microbe, parasite or virus in culture. Format: cell-based. From the text: Wild-type clinical S. aureus strains were obtained from the Network on Antibiotic Resistance in Staphylococcus aureus (NARSA/BEI) program. MRSA strain USA300 refers throughout this paper to strain NRS384 from NARSA/BEI. A global panel of 102 clinical S. aureus isolates was selected from the collection of International Health Management Associates, Inc. (IHMA; Schaumburg, IL), based on diversity of geographic locations, antibiotic resistance profiles, and sites of infection. Bacteria were cultured on cation-adjusted Mueller-Hinton agar (MHA) plates or in cation-adjusted Mueller-Hinton broth (MHB). Bacterial strains used in this study are listed in Table S5 in the supplemental material.
(§1) MICs were determined according to the standard protocol from the Clinical and Laboratory Standards Institute ([23]). Briefly, S. aureus bacteria were harvested from regular MHA plates that had been cultured for ~20 h at 37°C. Serial dilutions of compound 103 were incubated with bacteria at approximately 10^6 CFU (CFU)/ml in MHB in round-bottom 96 well plates (Corning, Corning, NY) for 22 h at 37°C. MICs were determined by the lowest concentration of compound 103 showing absence of growth by visual inspection.

Assay [2] concerns S. aureus USA300 cro/cI (M1V) (GNE0117). In words: MIC, cro/cI(M1V) mutant. Format: cell-based. As to conditions: for effect of cro/cI mutation on sensitivity to antibiotics: result in words, versus USA300 WT. Here is the method: as §1
Assay [3] relates to USA300 WT strain (strain GNE0023). Kind of assay: MIC, parental USA300 WT strain GNE0023. Format: cell-based, S. aureus. On the procedure: as §1
(§2) To generate mutations in SAUSA300_0351, _0352, and _0353 genes by homologous recombination, we transformed USA300 Δmcr using targeting constructs created in the vector pIMAY ([24]). To generate mutations in SAUSA300_0351, _0352, and _0353 genes in a cro/cI mutant background, we selected colonies from USA300 Δmcr cultured on plates containing fourfold the MIC of compound 103. Sequencing of PCR products of the cro/cI gene from resistant colonies yielded a clone with a Q16stop codon mutation in cro/cI (strain GNE0173). We further mutated SAUSA300_0351, _0352, and _0353 in this USA300 Δmcr cro/cI (Q16stop) clone to study the contributions of these three genes to cro/cI-mediated resistance.

In assay [4] the test system is S. aureus USA300 SAUSA300_0352(K44A) mutant (strain GNE0174). Kind of assay: MIC, K44A mutant GNE0174. It is filed as cell-based. On the procedure:
as §1, §2

Setting [5] is: S. aureus USA300 cro/cI (M1V) (GNE0117), Table S2.

Regarding `CCC[C@@H]1C[C@@H](C(=O)N[C@@H]([C@H]2O[C@H](SC)[C@H](O)[C@@H](O)[C@H]2O)[C@H](C)Cl)N(C)C1` [Clindamycin], the MIC in assay [1] (Staphylococcus aureus, USA300) was 0.25 µg/mL (≈ 0.588 µM). In assay [2], the “effect of cro/cI mutation on sensitivity to antibiotics” value (“effect of cro/cI mutation” for short) is “did not reduce sensitivity”.

For the molecule `CCCCCCCCCC(=O)N[C@@H](Cc1c[nH]c2ccccc12)C(=O)N[C@H](CC(N)=O)C(=O)N[C@@H](CC(=O)O)C(=O)N[C@@H]1C(=O)NCC(=O)N[C@@H](CCCN)C(=O)N[C@@H](CC(=O)O)C(=O)N[C@H](C)C(=O)N[C@@H](CC(=O)O)C(=O)NCC(=O)N[C@H](CO)C(=O)N[C@@H]([C@H](C)CC(=O)O)C(=O)N[C@@H](CC(=O)c2ccccc2N)C(=O)O[C@@H]1C` [Daptomycin], the MIC is on record as 2 µg/mL (≈ 1.23 µM) in assay [1] (S. aureus USA300 WT, Table S2) and 2 µg/mL (≈ 1.23 µM) in assay [2] (setting [5]). The “effect of cro/cI mutation” value in assay [2] is recorded as “did not reduce sensitivity”.

For `CC[C@H]1OC(=O)[C@H](C)[C@@H](O[C@H]2C[C@@](C)(OC)[C@@H](O)[C@H](C)O2)[C@H](C)[C@@H](O[C@@H]2O[C@H](C)C[C@H](N(C)C)[C@H]2O)[C@](C)(O)C[C@@H](C)C(=O)[C@H](C)[C@@H](O)[C@]1(C)O` [Erythromycin], the MIC in assay [1] (Staphylococcus aureus, USA300) is greater than 64 µg/mL; in assay [2] (Staphylococcus aureus, USA300), greater than 64 µg/mL. Also, in assay [2], the “effect of cro/cI mutation” value is recorded as “did not reduce sensitivity”.

`COc1c(N2CCNC(C)C2)c(F)cc2c(=O)c(C(=O)O)cn(C3CC3)c12` (stereo not drawn) [Gatifloxacin] returned an MIC in assay [1] (Staphylococcus aureus, USA300) of 0.5 µg/mL (≈ 1.33 µM). The “effect of cro/cI mutation” value in assay [2] is recorded as “did not reduce sensitivity”.

In turn, `CNC(C)C1CCC(N)C(OC2C(N)CC(N)C(OC3OCC(C)(O)C(NC)C3O)C2O)O1` (stereo not drawn) [Gentamycin] showed an MIC in assay [1] (Staphylococcus aureus, USA300) of 1 µg/mL (≈ 2.09 µM). The “effect of cro/cI mutation” value in assay [2] is on record as “did not reduce sensitivity”.

Turning to `CC(=O)NC[C@H]1CN(c2ccc(N3CCOCC3)c(F)c2)C(=O)O1` [Linezolid], the MIC in assay [1] (Staphylococcus aureus, USA300) is 4 µg/mL (≈ 11.9 µM). Also, in assay [2], the “effect of cro/cI mutation” value was “did not reduce sensitivity”.

For `CO[C@@H]1[C@@H](OC(N)=O)[C@@H](O)[C@H](Oc2ccc3c(O)c(NC(=O)c4ccc(O)c(CC=C(C)C)c4)c(=O)oc3c2C)OC1(C)C` [Novobiocin], the MIC in assay [1] (Staphylococcus aureus, USA300) is 0.25 µg/mL (≈ 0.408 µM). In addition, in assay [2], the “effect of cro/cI mutation” value is “did not reduce sensitivity”.

`Cc1onc(-c2ccccc2)c1C(=O)N[C@@H]1C(=O)N2[C@@H]1SC(C)(C)[C@@H]2C(=O)O` [Oxacillin]: the MIC in assay [1] (Staphylococcus aureus, USA300) was 64 µg/mL (≈ 159 µM). For the same molecule, the “effect of cro/cI mutation” value in assay [2] is reported as “did not reduce sensitivity”.

In assay [1] (Staphylococcus aureus, USA300), `CO[C@H]1/C=C/O[C@@]2(C)Oc3c(C)c(O)c4c(O)c(c(/C=N/N5CCN(C)CC5)c(O)c4c3C2=O)NC(=O)/C(C)=C\C=C\[C@H](C)[C@H](O)[C@@H](C)[C@@H](O)[C@@H](C)[C@H](OC(C)=O)[C@@H]1C` [Rifampicin] registered an MIC of 0.06 µg/mL (≈ 0.0729 µM). Also, the “effect of cro/cI mutation” value in assay [2] is listed as “did not reduce sensitivity”.

Turning to `CN[C@H](CC(C)C)C(=O)N[C@H]1C(=O)N[C@@H](CC(N)=O)C(=O)N[C@H]2C(=O)N[C@H]3C(=O)N[C@H](C(=O)N[C@H](C(=O)O)c4cc(O)cc(O)c4-c4cc3ccc4O)[C@H](O)c3ccc(c(Cl)c3)Oc3cc2cc(c3O[C@@H]2O[C@H](CO)[C@@H](O)[C@H](O)[C@H]2O[C@H]2C[C@](C)(N)[C@H](O)[C@H](C)O2)Oc2ccc(cc2Cl)[C@H]1O` [Vancomycin], the MIC is listed as 2 µg/mL (≈ 1.38 µM) in assay [1] (S. aureus USA300 WT, Table S2) and 1 µg/mL (≈ 0.69 µM) in assay [2] (setting [5]). The “effect of cro/cI mutation” value in assay [2] is listed as “did not reduce sensitivity”.

Regarding nisin, the MIC in assay [3] and in assay [4] was 200 µg/mL each time.

protamine: the MIC in assay [3] and in assay [4] was 8 µg/mL in each case.
